This passage reports IC50 results from patent US9221834B2 (Merck Sharp & Dohme Corp., priority 2010, dated 2015).

This assay has as its target T1, recombinant CETP (rCETP) (Homo sapiens, UniProt P11597).
T1 sequence (P11597 18-493): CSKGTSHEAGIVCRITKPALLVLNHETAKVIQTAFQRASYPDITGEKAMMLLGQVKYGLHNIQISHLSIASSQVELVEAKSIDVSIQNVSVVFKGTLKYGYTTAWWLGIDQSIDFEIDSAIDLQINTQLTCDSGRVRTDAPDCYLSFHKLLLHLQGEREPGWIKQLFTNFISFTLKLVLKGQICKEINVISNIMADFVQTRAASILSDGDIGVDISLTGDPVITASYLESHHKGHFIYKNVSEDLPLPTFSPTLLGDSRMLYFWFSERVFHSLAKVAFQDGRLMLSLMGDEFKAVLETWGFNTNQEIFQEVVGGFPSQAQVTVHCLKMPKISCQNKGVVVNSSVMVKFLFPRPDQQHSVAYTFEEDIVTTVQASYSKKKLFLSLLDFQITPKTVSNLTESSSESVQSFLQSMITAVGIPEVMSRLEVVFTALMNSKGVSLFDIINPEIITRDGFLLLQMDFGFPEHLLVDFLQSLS
Put plainly: RTA assay using recombinant CETP (2% RTA). The class given is biochemical. Conditions: RTA assay in 2% human serum; read-out: IC50. How it is done:
In Vitro Radioactive Assays of CETP-Catalyzed CE and TG Transfer (RTA Assay)
Reagents and sources are: [3H] cholesteryl oleate (GE #TRK.886), [3H]
Both assays measure the transfer of [3H] cholesteryl oleate or [3H]triolein from exogenous LDL to HDL.
After a brief vortex, the solution is sonicated until clear and mixed with 20 mL of fresh human serum. The mixture is incubated overnight at 37° C. […] Once isolated the particles are dialyzed 3× in CETP buffer (50 mM Tris, pH 7.4, 100 mM NaCl, 1 mM EDTA). Human HDL is purchased from Intracel and used as the acceptor particles.
Transfer assays are performed in a 96-well v-bottom polypropylene plate. […] 1 μL of each test compound diluted in DMSO is added to 47 μL of assay cocktail per well and incubated at 37° C. for 1 hour. To initiate the transfer reaction, 2 μL radiolabeled LDL is added. After an additional 60 min of incubation at 37° C., the transfer action is terminated by precipitation of LDL with an equal volume of 20% W/V PEG 8000. The plates are centrifuged at 2000 rpm for 30 minutes at 4° C. A 40 μL aliquot of the HDL-containing supernatant is transferred to a Packard Optiplate with 200 μL of MicroScint 20. After mixing, plates are counted by liquid scintillation. Counts present in the supernatant for blanks (wells containing only HDL acceptor, CETP buffer and DMSO) are subtracted from those containing test compounds and used to correct for non-specific transfer.
Comparison of the counts of samples with inhibitors to an uninhibited (DMSO only) positive control yield a percent inhibition. A plot of percent inhibition vs. log of inhibitor concentration, fit to a Sigmoidal 4 parameter equation is used to calculate IC50.

Usually IC50 stands for the concentration at which inhibition is half-maximal. As for `COc1ccc(C(C)(C)CC(=O)O)cc1-c1ccc(N2CCC2)nc1CN1C(=O)O[C@H](c2cccc(C(F)(F)F)c2)[C@@H]1C` [Example 220], the IC50 is 0.33 µM.
Take `COc1ccc([C@H]2C[C@H](CC(=O)O)C2)cc1-c1ccc(N2CCC2)nc1CN1C(=O)O[C@H](c2cc(C(F)(F)F)cc(C(F)(F)F)c2)[C@@H]1C` [Example 92]: the IC50 came out at 0.005 µM.
Regarding `C[C@H]1[C@@H](c2cc(C(F)(F)F)cc(C(F)(F)F)c2)OC(=O)N1Cc1nc(N2CCC2)ncc1-c1cc([C@H]2CC[C@H](C(=O)O)CC2)ccc1Cl` [Example 173], the IC50 was determined as 0.021 µM.
For `CCOC(=O)[C@@H]1C[C@H]1c1ccc(OC)c(-c2ccc(N3CCC3)nc2CN2C(=O)O[C@H](c3cc(C)cc(C)c3)[C@@H]2C)c1` [Example 208] the value was 0.025 µM.
For `COc1cc(F)c(CCC(=O)O)cc1-c1ccc(N2CCC2)nc1CN1C(=O)O[C@H](c2cc(C(F)(F)F)cc(C(F)(F)F)c2)[C@@H]1C` [Example 79] the value was 0.018 µM.
With `COC(=O)CCc1ccc(OC)c(-c2cnc(N3CC(F)C3)nc2CN2C(=O)O[C@H](c3cc(C(F)(F)F)cc(C(F)(F)F)c3)[C@@H]2C)c1` [Example 143], the IC50 stood at 0.007 µM.
For `COc1ccc(CCC(=O)O)cc1-c1cnc(N2CC(F)(F)C2)nc1CN1C(=O)O[C@H](c2cc(C(F)(F)F)cc(C(F)(F)F)c2)[C@@H]1C` [Example 174] the value was 0.018 µM; for `COc1ccc(CC(=O)O)cc1-c1c(C)cc(N2CCC2)nc1CN1C(=O)O[C@H](c2cc(C(F)(F)F)cc(C(F)(F)F)c2)[C@@H]1C` [Example 76], 0.014 µM; for `Cc1cc(C(=O)O)ccc1-c1cc(-c2cnc(N3CC(F)(F)C3)nc2CN2C(=O)O[C@H](c3cc(C(F)(F)F)cc(C(F)(F)F)c3)[C@@H]2C)ccc1F` [Example 184, 5′-[4-({(4S,5R)-5-[3,5-bis(trifluoromethyl)phenyl]-4-methyl-2-oxo-1,3-oxazolidin-3-yl}methyl)-2-(3,3-difluoroazetidin-1-yl)pyrimidin-5-yl]-2′-fluoro-2-methylbiphenyl-4-carboxylic acid], 0.012 µM.
For `COc1cc(F)c(-c2ncc(C(=O)O)cc2Cl)cc1-c1cnc(N2CC(F)(F)C2)nc1CN1C(=O)O[C@H](c2cc(C(F)(F)F)cc(C(F)(F)F)c2)[C@@H]1C` [Example 189] the value was 0.005 µM; for `COc1ccc([C@H]2CC[C@H](C(=O)O)CC2)cc1-c1ccc(N2CC(F)(F)C2)nc1CN1C(=O)O[C@H](c2cccc(OC(F)(F)F)c2)[C@@H]1C` [Example 294], 0.102 µM.
For `COc1ccc([C@H]2CC[C@H](C(=O)O)CC2)cc1-c1ccc(N2CCC2)nc1CN1C(=O)O[C@H](c2cc(C)cc(C)c2)[C@@H]1C` [Example 224] the value was 0.014 µM; for `COc1ccc([C@@H]2CC[C@H](C(=O)O)C2)cc1-c1ccc(N2CCC2)nc1CN1C(=O)O[C@H](c2cc(C(F)(F)F)cc(C(F)(F)F)c2)[C@@H]1C` (single isomer, unassigned) [Example 246], 0.012 µM; for `COc1ccc(CCC(=O)O)cc1-c1cnc(N2CCC2)nc1CN1C(=O)O[C@H](c2cc(C(F)(F)F)cc(C(F)(F)F)c2)[C@@H]1C` [Example 171], 0.06 µM.
As to `COc1cc(F)c(-c2ccc(C(=O)O)cc2C)cc1-c1ccc(N2CCC2)nc1CN1C(=O)O[C@H](c2cc(C#N)cc(C(F)(F)F)c2)[C@@H]1C` [Example 247], the IC50 was found to be 0.044 µM.
As for `COc1ccc(CCc2ncc[nH]2)cc1-c1ccc(N2CCC2)nc1CN1C(=O)O[C@H](c2cc(C(F)(F)F)cc(C(F)(F)F)c2)[C@@H]1C` [Example 268], the concentration for half-maximal inhibition (IC50) was found to be 0.091 µM.
As for `CCOC(=O)[C@H]1C[C@@H]1c1ccc(OC)c(-c2ccc(N3CCC3)nc2CN2C(=O)O[C@H](c3cc(C(F)(F)F)cc(C(F)(F)F)c3)[C@@H]2C)c1` [Example 4], the IC50 is 0.006 µM.
For `COC(=O)CC(C)(C)c1ccc(OC)c(-c2ccc(N3CCC3)nc2CN2C(=O)O[C@H](c3cccc(C)c3)[C@@H]2C)c1` [Example 203] the value was 0.106 µM; for `COC(=O)CC(C)(C)c1ccc(OC)c(-c2ccc(N3CCC3)nc2CN2C(=O)O[C@H](c3cc(C(F)(F)F)cc(C(F)(F)F)c3)[C@@H]2C)c1` [Example 7], 0.012 µM.
For `COc1ccc([C@@H]2C[C@H]2C(=O)O)cc1-c1ccc(N2CCC2)nc1CN1C(=O)O[C@H](c2cc(C)cc(C)c2)[C@@H]1C` [Example 233] the value was 0.038 µM; for `COc1ccc([C@H]2CC[C@H](C(=O)OC)CC2)cc1-c1ccc(N2CCC2)nc1CN1C(=O)O[C@H](c2cc(C)cc(C)c2)[C@@H]1C` [Example 200], 0.055 µM; for `COc1ccc(-c2csc(C(=O)O)c2OC)cc1-c1ccc(N2CCC2)nc1CN1C(=O)O[C@H](c2cc(C(F)(F)F)cc(C(F)(F)F)c2)[C@@H]1C` [Example 110], 0.044 µM.
For `Cc1cc(C(=O)O)ccc1-c1cc(-c2cnc(N3CCC3)nc2CN2C(=O)O[C@H](c3cccc(C(F)(F)F)c3)[C@@H]2C)ccc1F` [Example 276] the value was 0.076 µM; for `COc1ccc(-c2sc(C(=O)O)cc2C)cc1-c1ccc(N2CCC2)nc1CN1C(=O)O[C@H](c2cc(C(F)(F)F)cc(C(F)(F)F)c2)[C@@H]1C` [Example 106], 0.012 µM; for `COC(=O)C[C@H]1C[C@@H](c2ccc(OC)c(-c3ccc(N4CCC4)nc3CN3C(=O)O[C@H](c4cc(C(F)(F)F)cc(C(F)(F)F)c4)[C@@H]3C)c2)C1` [Example 25], 0.014 µM.
With `COc1ccc(CCC(=O)N2CCC2)cc1-c1cnc(N2CCC2)nc1CN1C(=O)O[C@H](c2cc(C(F)(F)F)cc(C(F)(F)F)c2)[C@@H]1C` [Example 193], the IC50 was determined as 0.105 µM.
For `COC(=O)CCc1ccc(OC)c(-c2ccc(N3CCC3)nc2CN2C(=O)O[C@H](c3cc(F)c(F)c(F)c3)[C@@H]2C)c1` [Example 31] the value was 0.097 µM; for `COc1ccc([C@H]2CC[C@H](C(=O)O)CC2)cc1-c1ccc(N2CCC2)nc1CN1C(=O)O[C@H](c2cccc(C(F)(F)F)c2)[C@@H]1C` [Example 219], 0.044 µM.
For `COc1ccc(CCC(=O)O)cc1-c1ccc(N2CCC2)nc1CN1C(=O)O[C@H](c2cc(C(F)(F)F)cc(C(F)(F)F)c2)[C@@H]1C` [Example 60, 3-{3-[6-Azetidin-1-yl-2-({(4S,5R)-5-[3,5-bis(trifluoromethyl)phenyl]-4-methyl-2-oxo-1,3-oxazolidin-3-yl}methyl)pyridin-3-yl]-4-methoxyphenyl}propanoic acid] the value was 0.011 µM; for `CCOC(=O)C[C@@H]1CCc2cc(OC)c(-c3ccc(N4CCC4)nc3CN3C(=O)O[C@H](c4cccc(C(F)(F)F)c4)[C@@H]3C)cc21` [Example 204], 0.114 µM.
Turning to `COC(=O)CC(C)(C)c1ccc(OC)c(-c2ccc(N3CCC3)nc2CN2C(=O)O[C@H](c3cc(F)c(F)c(F)c3)[C@@H]2C)c1` [Example 32], the half-inhibitory concentration (IC50) is 0.107 µM.
For `CCOC(=O)[C@H]1C[C@@H]1c1ccc(OC)c(-c2ccc(N3CCC3)nc2CN2C(=O)O[C@H](c3cc(F)cc(F)c3)[C@@H]2C)c1` [Example 17] the value was 0.181 µM.
For `COc1ccc([C@H]2CC[C@H](C#N)CC2)cc1-c1ccc(N2CCC2)nc1CN1C(=O)O[C@H](c2cc(C)cc(C)c2)[C@@H]1C` [Example 255] the value was 0.395 µM; for `CCOC(=O)CC1CCc2cc(OC)c(-c3ccc(N4CCC4)nc3CN3C(=O)O[C@H](c4cc(C(F)(F)F)cc(C(F)(F)F)c4)[C@@H]3C)cc21` (stereo partly shown) [Example 6], 0.007 µM.
